Test results reported in patent publication US10787640B2, “Producing mesodermal cell types and methods of using the same” (The Board of Trustees of the Leland Stanford Junior …, priority 2015, dated 2020).

B1: BMP4: BMP family ligand, BMP agonist (protein, UniProt P12644 293-408, looked up)
Bone morphogenetic protein 4: SPKHHSQRARKKNKNCRRHSLYVDFSDVGWNDWIVAPPGYQAFYCHGDCPFPLADHLNSTNHAIVQTLVNSVNSSIPKACCVPTELSAISMLYLDEYDKVVLKNYQEMVVEGCGCR

What was measured:
Type in all cases: cell-based, human
paraxial mesoderm = assay: Paraxial mesoderm induction, marker expression; conditions: during induction of paraxial mesoderm
Description: All differentiation was conducted in serum-free CDM2 basal medium in monolayer feeder-free conditions. hPSCs were sparsely passaged ˜1:15-1:20 as fine clumps (using Accutase) onto Geltrex (Gibco)-coated cell culture wells and cultured overnight in mTeSR1+1 μM thiazovivin. The following morning, hPSCs were differentiated towards anterior PS (30 ng/mL Activin+4 μM CHIR+20 ng/mL FGF2+100 nM PIK90; for subsequent paraxial differentiation) or mid PS (30 ng/mL Activin+40 ng/mL BMP4+6 μM CHIR+20 ng/mL FGF2+[…] differentiation) for 24 hrs. D1 anterior PS→D2 paraxial mesoderm (1 μM A8301+3 μM CHIR+250 nM LDN193189+20 ng/mL FGF2) for 24 hrs. D1 mid PS→D2 lateral mesoderm (1 μM A8301+30 ng/mL BMP4+1 μM C59) for 24 hrs.
(§1) Subsequently, day 1 anterior primitive streak was briefly washed (DMEM/F12) and differentiated towards day 2 paraxial mesoderm for 24 hours (1 μM A-83-01+3 μM CHIR99021+250 nM LDN-193189+20 ng/mL FGF2). Separately, day 1 mid primitive streak was differentiated towards day 2 lateral mesoderm for 24 hours (1 μM A-83-01+30 ng/mL BMP4+1 μM C59; with 2 μM SB-505124 sometimes used instead of A-83-01).

[1] = system: hESC-derived lateral mesoderm; assay: Lateral mesoderm patterning, qPCR
Description: as §1
C) To reveal the possible identity of non-cardiac mesoderm lineages that were contaminating cardiac mesoderm-containing cultures, NKX2.5-GFP hESCs were differentiated towards mid primitive streak (day 1) and were differentiated towards a heterogeneous population containing cardiac mesoderm (day 3) by treatment with SB-505124+BMP4+C59 (without FGF2) on days 2-3 of differentiation. FACS was performed on day 3 to purify either NKX2.5-GFP^+ or NKX2.5-GFP^− cells (top subpanels) which were sorted for qPCR (bottom subpanels). Gene expression was normalized to expression of a gene in the NKX2.5-GFP^+ fraction (dotted line). D) Timecourse of gene expression in hESCs differentiating towards mid primitive streak and lateral mesoderm, with treatment by SB-505124+BMP4+C59 on days 2-3 of differentiation. […] G) To assess whether a stabilized vitamin C analog (ascorbic acid-2-phosphate) (AA2P) enhanced cardiac mesoderm differentiation into cardiomyocytes, day 4 hESC-derived cardiac mesoderm was exposed to BMP4 (30 ng/mL)+XAV939 (1 μM) for 48 hours in the presence or absence of 200 μg/mL AA2P and qPCR was conducted of day 6 populations; qPCR data were normalized such that expression values in the highest-expressing sample was normalized=1.0. […] J) In the mouse embryo, endocardium (progenitors to heart-affiliated endothelium) are marked by transient coexpression of pan-heart marker Nkx2.5 together with endothelial markers (Ferdous et al., 2009; Stanley et al., 2002).

[2] = system: day 3 hemogenic precursors; assay: Hemogenic precursors into day 5 hematopoietic intermediates; conditions: withdrawal of the factor from BMP, VEGF, XAV939, TTNPB
Description: SOX17^mCherry/+ H9 hESCs (referred to as SOX17-mCherry hESCs throughout this study) were routinely propagated in mTeSR1 (StemCell Technologies)+1% penicillin/streptomycin. They were passaged ˜1:12-1:25 as fine clumps using Accutase (Gibco) onto plates precoated with a Geltrex substratum (Gibco) in mTeSR1 medium supplemented with thiazovivin ([…]; a ROCK inhibitor). After overnight plating, hESCs were washed (DMEM/F12) and differentiated towards posterior PS using BMP4 (15-40 ng/mL, R&D Systems), CHIR99021 ([…]), FGF2 (20 ng/mL, Invitrogen) and PIK90 (100 nM, Calbiochem) for 24 hours, with the optional inclusion of Activin (30 ng/mL, R&D Systems) to induce mid PS. Day 1 mid or posterior PS was subsequently washed (DMEM/F12) and further differentiated using BMP4 (40 ng/mL), GDC-0941 (0.25-2.5 μM, Cellagen Technology), Forskolin (10 μM, Tocris), SB-505124 ([…]), VEGF (100 ng/mL, R&D Systems), XAV939 (1 μM, Tocris) and ascorbic acid-2-phosphate (200 μg/mL, Sigma) for 24 hours. Day 2 cultures were further directed into the definitive hematopoietic lineage/hemogenic precursors by Activin A (15 ng/mL), GDC-0941 (0.25-2.5 μM), VEGF (100 ng/mL), XAV939 (1 μM) and ascorbic acid-2-phosphate (200 μg/mL) for 24 hours. Day 3 definitive hematopoietic progenitors were subsequently differentiated into early Runx1^lowGfi1^low hemogenic intermediates through day 4-5 treatment with BMP4 (50 ng/mL), TTNPB (500 nM), VEGF (100 ng/mL) and XAV939 (1 μM) for 48 hours, supplemented with SB-505124 (2 μM) on day 5. Day 5 populations were then dissociated into single cells, counted and reaggregated in individual wells of a low-adhesion V-bottom or U-bottom 96-well plate (e.g., Thermo Fisher, catalog no. 249952) with ˜15,000-20,000 cells seeded per well. Aggregates were cultured for 48 additional hours until day 7 in BMP4 (50 ng/mL), TTNPB (500 nM), VEGF (100 ng/mL), XAV939 (1 μM), SB-505124 (2 μM), SCF (25-50 ng/mL, R&D Systems), IL6 (10 ng/mL, R&D Systems) and IL6RA (250-1000 ng/mL, R&D Systems). All differentiation was conducted in serum-free CDM2 fully-defined basal media.

Molecule | marker expression (paraxial mesoderm; at 4 μM) | critical concentration (paraxial mesoderm) | lateral mesoderm fate (qPCR) ([1]; day 2 lateral mesoderm, SB-505124+BMP4 with CHIR99021 or C59, 24 hours) | pan-lateral mesoderm marker FOXF1 expression ([1]; last 12 hrs C59 or 3 μM CHIR in addition to BS) | RUNX1 expression by day 5 [2]
Cc1cnc(-c2cnc(NCCNc3ccc(C#N)cn3)nc2-c2ccc(Cl)cc2Cl)[nH]1 [CHIR99021, 6-[[2-[[4-(2,4-Dichlorophenyl)-5-(5-methyl-1H-imidazol-2-yl)-2-pyrimidinyl]amino]ethyl]amino]-3-pyridinecarbonitrile] | undesired decrease in marker expression | less than 4 μM | specified a posterior lateral mesoderm/forelimb bud fate (PRRX1) | not markedly changed | –
B1 | – | – | – | – | crippled RUNX1 expression
